Results published in article PMC10788917 (Journal of Medicinal Chemistry, 2023).
Residue numbers refer to the chain shown, from its start.

Experiments:
Experiment in all cases: HDAC8 mutant biochemical assay
[1] = molecular target: T1, HDAC8 Cys102Ser/Cys153Ser/Cys28Ser (Homo sapiens, UniProt Q9BY41, C102S/C153S/C28S); conditions: read-out: IC50 [μM] @ 100 nM HDAC8: B Cys102Ser/Cys153Ser/Cys28Ser, 1 h preincubation
T1 construct: made in house
T1 sequence (Q9BY41 1-377 C28S/C102S/C153S): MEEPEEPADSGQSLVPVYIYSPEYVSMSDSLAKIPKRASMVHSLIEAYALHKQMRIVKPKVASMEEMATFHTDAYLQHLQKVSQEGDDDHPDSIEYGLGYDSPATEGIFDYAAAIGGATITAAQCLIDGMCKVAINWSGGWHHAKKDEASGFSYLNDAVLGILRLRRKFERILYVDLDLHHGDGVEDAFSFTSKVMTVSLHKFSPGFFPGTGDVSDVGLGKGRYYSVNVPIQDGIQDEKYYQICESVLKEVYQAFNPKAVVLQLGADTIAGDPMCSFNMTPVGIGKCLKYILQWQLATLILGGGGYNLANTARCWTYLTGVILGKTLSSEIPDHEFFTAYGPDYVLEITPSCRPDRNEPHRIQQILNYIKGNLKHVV
Experimental: (§1) HDAC8 mutant variants were generated, produced, and further purified as described previously.[32] Cysteines 28 and 314 were exchanged with serine using the following primer pairs: HD8_C28S_for, […]; HD8_C28S_rev, […]; HD8_C314S_for, […]; HD8_C314S_rev, […].
(§2) The enzyme activity assay was performed in assay buffer [25 mM Tris-HCl (pH 8.0), 50 mM NaCl, and 0.001% (v/v) Pluronic F-68] in black half-area 96-well microplates (Greiner Bio-One). For the initial screening, 10 nM HDAC8 was preincubated with the indicated compounds at 250 μM for 2 h at 30 °C. […] The reaction was initiated by the addition of 20 μM Boc-Lys(TFA)-AMC (Bachem). After substrate conversion at 30 °C for 15 min for HDAC8 and 1 h for HDAC8 mutants and HDAC4, the reaction was stopped by adding 1.67 μM suberoylanilide trifluoromethylketone (SATFMK). The deacetylated substrate was cleaved with 0.42 mg/mL trypsin to release fluorescent 7-amino-4-methylcoumarin (AMC), which was detected with a microplate reader (PHERAstar FS […]) with fluorescence excitation at 360 nm and emission at 460 nm. IC50 values were calculated by generating dose–response curves in GraphPad Prism 6 and fitting those to a four-parameter logistic model.

[2] = molecular target: T2, HDAC8 Cys102Ser/Cys153Ser/Cys352Ser (Homo sapiens, UniProt Q9BY41, C102S/C153S/C352S); conditions: read-out: IC50 [μM] @ 100 nM HDAC8: I Cys102Ser/Cys153Ser/Cys352Ser, 1 h preincubation
T2 construct: made in house
T2 sequence (Q9BY41 1-377 C102S/C153S/C352S): T1 sequence (Q9BY41 1-377 C28S/C102S/C153S) with S28C, C352S
Experimental: as §1, §2

[3] = molecular target: T3, HDAC8 Cys102Ser/Cys153Ser/Cys314Ser (Homo sapiens, UniProt Q9BY41, C102S/C153S/C314S); conditions: read-out: IC50 [μM] @ 100 nM HDAC8: H Cys102Ser/Cys153Ser/Cys314Ser, 1 h preincubation
T3 construct: made in house
T3 sequence (Q9BY41 1-377 C102S/C153S/C314S): T1 sequence (Q9BY41 1-377 C28S/C102S/C153S) with S28C, C314S
Experimental: as §1, §2

[4] = molecular target: T4, HDAC8 Cys102Ser/Cys153Ser/Cys131Ser (Homo sapiens, UniProt Q9BY41, C102S/C131S/C153S); conditions: read-out: IC50 [μM] @ 100 nM HDAC8: D Cys102Ser/Cys153Ser/Cys131Ser, 1 h preincubation
T4 construct: made in house
T4 sequence (Q9BY41 1-377 C102S/C131S/C153S): T1 sequence (Q9BY41 1-377 C28S/C102S/C153S) with S28C, C131S
Experimental: as §1, §2

IC50 [1] | IC50 [2] | IC50 [3] | IC50 [4] | SMILES
> 130 µM | 15 ± 2 µM | > 130 µM | 18 ± 4 µM | C[n+]1cccnc1Br [D2+]
67 ± 6 µM | 9 ± 1 µM | 100 ± 14 µM | 3.3 ± 0.3 µM | C#Cc1cc[n+](C)cc1 [C6+]
> 130 µM | 118 ± 13 µM | – | 93 ± 13 µM | C#Cc1nccc[n+]1C [D6+]
106 ± 10 µM | 59 ± 3 µM | > 130 µM | 55 ± 12 µM | C#Cc1c[n+](C)ccn1 [G6+]
> 130 µM | 29 ± 2 µM | 14 µM | 36 ± 8 µM | C[n+]1ccc(I)cc1 [C3+]
62 ± 3 µM | 11 ± 1 µM | 20 ± 1 µM | 8 ± 1 µM | C[n+]1cccnc1I [D3+]
> 130 µM | 36 ± 2 µM | 92 ± 10 µM | 42 ± 4 µM | C[n+]1ccccc1I [A3+]
> 130 µM | 41 ± 7 µM | > 130 µM | 49 ± 6 µM | C[n+]1cccnc1Cl [D1+]
> 130 µM | 29 ± 6 µM | 19 ± 2 µM | 15 µM | C[n+]1cncc(I)c1 [F3+]
> 130 µM | 15 ± 1 µM | 74 ± 11 µM | 25 ± 2 µM | C[n+]1cncc(Br)c1 [F2+]
